Experimental data: patent EP1981504B1, “THIADIAZOLE DERIVATIVES FOR THE TREATMENT OF NEURO DEGENERATIVE DISEASES” (NV reMYND, priority 2006, dated 2007)
Values after ≈ are worked out from the molar mass of the structure shown.

Tested on: M17-SYNwt cells
Assay: α-synuclein cytotoxicity assay (LDH leakage from paraquat-treated α-synuclein over-expressing neuroblastoma cells)
Assay type: cell-based, human
Settings: for EC50 (µg/mL) / %I / EC50: paraquat 32 mM, 40 hours, LDH release; for EC50 (µg/mL) / EC50: 10 point curves in duplicate; for %I: percent inhibition of synuclein cytotoxicity at most effective concentration of test compound, relative to untreated paraquat cells; for LDH activity in the medium: Figure 2, dose response in paraquat-treated M17-SYNwt cells; for EC50: Homo sapiens, Neuroblastoma cell
Experimental: Subsequently, LDH activity was determined using Promega Cytotox 96 NonRadioactive cytotoxicity assay, (Cat. G1780) according the supplier's instructions.
This corresponds to the following equation: (LDHreleaseoftreatedparaquatcellsatnon-effectiveconcentrationoftestcmpd)−(LDHreleaseoftreatedparaquatcellsatmosteffectiveconcentrationoftestcmpd)/(LDHreleaseofuntreatedparaquatcells)−(LDHreleasecontrolcells)*100% [formula]
1,2,4-thiadazole compounds made according to the methods described herein were screened for activity using the α-synuclein cytotoxicity assay as described above. Dose responses were carried out on all compounds found to be active (10 point curves in duplicate).

Row | Molecule | EC50 (µg/mL) | %I [%] | LDH activity in the medium | EC50 [µg/mL]
1 | 1-(3-methylbenzoyl)-4-[3-(4-methylbenzyl)-1,2,4-thiadiazol-5-yl]-2-methylpiperazine [Compound 144] | 0,56 µg/mL | 64 |  | 
2 | 1-(4-methoxybenzoyl)-4-[3-(4-methylbenzyl)-1,2,4-thiadiazol-5-yl]-2-methylpiperazine [Compound 130] | 0,25 µg/mL | 118 |  | 
3 | 1-(phenylprop-2-ensulfonyl)-4-[3-(4-fluorobenzyl)-1,2,4-thiadiazol-5-yl]piperazine [Compound 78] | 0,13 µg/mL | 75 |  | 
4 | 1-(phenylprop-2-ensulfonyl)-4-[3-(4-methylbenzyl)-1,2,4-thiadiazol-5-yl]-2-methylpiperazine [Compound 79] | 0,17 µg/mL | 53 |  | 
5 | 1-(phenylprop-2-ensulfonyl)-4-[3-(4-methylbenzyl)-1,2,4-thiadiazol-5-yl]piperazine [Compound 80] | 0,056880 µg/mL | 70 |  | 
6 | 1-[3-trifluorophenylsulfonyl]-4-[3-(4-fluorobenzyl)-1,2,4-thiadiazol-5-yl]-2-methylpiperazine [Compound 46] | 1,34 µg/mL | 64 |  | 
7 | 1-[4-bromophenylsulfonyl]-4-[3-(4-methylbenzyl)-1,2,4-thiadiazol-5-yl]-3-methylpiperazine [Compound 40] | 0,099855 µg/mL | 77 |  | 
8 | 2-phenyl-N-{2-[4-[3-(4-fluorobenzyl)-1,2,4-thiadiazol-5-yl]piperazin-1-yl]ethyl}butanamide [Compound 111] | 1,79 µg/mL | 79 | able, in a dose-dependent manner, to reduce LDH activity in the medium | 
9 | 3-phenyl-N-{2-[4-[3-(4-fluorobenzyl)-1,2,4-thiadiazol-5-yl]piperazin-1-yl]ethyl}propanamide [Compound 112] | 0,55 µg/mL | 91 |  | 
10 | O=C(Cc1ccccc1)N1CCN(c2nc(Cc3ccc(F)cc3)ns2)CC1 [Compound 1, 4-phenylacetyl-1-[3-(4-fluorobenzyl)-1,2,4-thiadiazol-5-yl]piperazine] |  | 75 |  | 0.15 (≈ 0.378 µM)
11 | O=C(Cc1ccc(F)cc1)N1CCN(c2nc(Cc3ccc(F)cc3)ns2)CC1 [Compound 2, 4-(4-fluorophenylacetyl),1-[3-(4-fluorobenzyl)-1,2,4-thiadiazol-5-yl]piperazine] |  | 54 |  | 0.25 (≈ 0.603 µM)
12 | Cc1ccc(Cc2nsc(N3CCN(C(=O)Cc4ccc(F)cc4)C(C)C3)n2)cc1 (stereo not drawn) [Compound 3, 1-(4-fluorophenylacetyl)-4-[3-(4-methylbenzyl)-1,2,4-thiadiazol-5-yl]-2-methylpiperazine] |  | 76 |  | 2.2 (≈ 5.18 µM)
13 | COc1ccc(CC(=O)N2CCN(c3nc(Cc4ccc(F)cc4)ns3)CC2C)cc1 (stereo not drawn) [Compound 4, 1-(4-methoxyphenylacetyl)-4-[3-(4-fluorobenzyl)-1,2,4-thiadiazol-5-yl]-2-methylpiperazine] |  | 56 |  | 0.82 (≈ 1.86 µM)
14 | CC1CN(c2nc(Cc3ccc(F)cc3)ns2)CCN1C(=O)Cc1ccccc1 (stereo not drawn) [Compound 5, 1-phenylacetyl-4-[3-(4-fluorobenzyl)-1,2,4-thiadiazol-5-yl]-2-methylpiperazine] |  | 83 |  | 
15 | CC1CN(c2nc(Cc3ccc(F)cc3)ns2)CCN1C(=O)Cc1ccc(F)cc1 (stereo not drawn) [Compound 6, 1-(4-fluorophenylacetyl)-4-[3-(4-fluorobenzyl)-1,2,4-thiadiazol-5-yl]-2-methylpiperazine] |  | 75 |  | 
16 | CC1CN(c2nc(Cc3ccc(F)cc3)ns2)CCN1C(=O)C(Cl)c1ccccc1 (stereo not drawn) [Compound 7, 1-[chloro(phenyl)acetyl]-4-[3-(4-fluorobenzyl)-1,2,4-thiadiazol-5-yl]-2-methylpiperazine] |  | 69 |  | 
17 | CCC(C(=O)N1CCN(c2nc(Cc3ccc(F)cc3)ns2)CC1C)c1ccccc1 (stereo not drawn) [Compound 8, 1-(2-phenylbutanoyl)-4-[3-(4-fluorobenzyl)-1,2,4-thiadiazol-5-yl]-2-methylpiperazine] |  | 71 |  | 1.49 (≈ 3.4 µM)

Row | Molecule | EC50 (µg/mL) | %I [%] | LDH activity in the medium | EC50 [µg/mL]
18 | O=C(Nc1cccc(F)c1)N1CCN(c2nc(Cc3ccc(F)cc3)ns2)CC1 [Compound 9, N-(3-fluorophenyl)-4-[3-(4-fluorobenzyl)-1,2,4-thiadiazol-5-yl]piperazine-1-carboxamide] |  | 53 |  | 0.52 (≈ 1.25 µM)
19 | Cc1ccccc1NC(=O)N1CCN(c2nc(Cc3ccc(F)cc3)ns2)CC1C (stereo not drawn) [Compound 10, N-(2-methylphenyl)-4-[3-(4-fluorobenzyl)-1,2,4-thiadiazol-5-yl]-2-methylpiperazine-1-carboxamide] |  | 72 |  | 0.6 (≈ 1.41 µM)
20 | CCc1ccc(NC(=O)N2CCN(c3nc(Cc4ccc(F)cc4)ns3)CC2C)cc1 (stereo not drawn) [Compound 11, N-(4-ethylphenyl)-4-[3-(4-fluorobenzyl)-1,2,4-thiadiazol-5-yl]-2-methylpiperazine-1-carboxamide] |  | 73 |  | 0.69 (≈ 1.57 µM)
21 | CCc1ccccc1NC(=O)N1CCN(c2nc(Cc3ccc(F)cc3)ns2)CC1C (stereo not drawn) [Compound 12, N-(2-ethylphenyl)-4-[3-(4-fluorobenzyl)-1,2,4-thiadiazol-5-yl]-2-methylpiperazine-1-carboxamide] |  | 92 |  | 0.89 (≈ 2.02 µM)
22 | O=C(Nc1ccccc1)N1CCN(c2nc(Cc3ccc(F)cc3)ns2)CC1 [Compound 13, N-phenyl-4-[3-(4-fluorobenzyl)-1,2,4-thiadiazol-5-yl]piperazine-1-carboxamide] |  | 71 |  | 1.23 (≈ 3.09 µM)
23 | CCOc1ccc(NC(=O)N2CCN(c3nc(Cc4ccc(F)cc4)ns3)CC2C)cc1 (stereo not drawn) [Compound 14, N-(4-ethoxyphenyl)-4-[3-(4-fluorobenzyl)-1,2,4-thiadiazol-5-yl]-2-methylpiperazine-1-carboxamide] |  | 70 |  | 1.73 (≈ 3.8 µM)
24 | Cc1ccccc1NC(=O)N1CCN(c2nc(Cc3ccc(F)cc3)ns2)CC1 [Compound 15, N-(2-methylphenyl)-4-[3-(4-fluorobenzyl)-1,2,4-thiadiazol-5-yl]piperazine-1-carboxamide] |  | 65 |  | 5.01 (≈ 12.2 µM)
25 | O=C(Nc1ccccc1F)N1CCN(c2nc(Cc3ccc(F)cc3)ns2)CC1 [Compound 16, N-(2-fluorophenyl)-4-[3-(4-fluorobenzyl)-1,2,4-thiadiazol-5-yl]piperazine-1-carboxamide] |  | 72 |  | 5.68 (≈ 13.7 µM)
26 | O=C(Nc1ccccc1C(F)(F)F)N1CCN(c2nc(Cc3ccc(F)cc3)ns2)CC1 [Compound 17, N-(2-trifluoromethylphenyl)-4-[3-(4-fluorobenzyl)-1,2,4-thiadiazol-5-yl]piperazine-1-carboxamide] |  | 46 |  | 
27 | CC1CN(c2nc(Cc3ccc(F)cc3)ns2)CCN1C(=O)Nc1ccccc1C(F)(F)F (stereo not drawn) [Compound 18, N-(2-trifluoromethylphenyl)-4-[3-(4-fluorobenzyl)-1,2,4-thiadiazol-5-yl]-2-methylpiperazine-1-carboxamide] |  | 41 |  | 
28 | Cc1cccc(C)c1NC(=O)N1CCN(c2nc(Cc3ccc(F)cc3)ns2)CC1C (stereo not drawn) [Compound 19, N-(2,6-dimethylphenyl)-4-[3-(4-fluorobenzyl)-1,2,4-thiadiazol-5-yl]-2-methylpiperazine-1-carboxamide] |  | 95 | able, in a dose-dependent manner, to reduce LDH activity in the medium | 0.2 (≈ 0.455 µM)
29 | Cc1ccc(NC(=O)N2CCN(c3nc(Cc4ccc(F)cc4)ns3)CC2C)c(C)c1 (stereo not drawn) [Compound 20, N-(2,4-dimethylphenyl)-4-[3-(4-fluorobenzyl)-1,2,4-thiadiazol-5-yl]-2-methylpiperazine-1-carboxamide] |  | 106 |  | 0.76 (≈ 1.73 µM)
30 | CC1CN(c2nc(Cc3ccc(F)cc3)ns2)CCN1C(=O)Nc1ccc(F)cc1F (stereo not drawn) [Compound 23, N-(2,4-difluorophenyl)-4-[3-(4-fluorobenzyl)-1,2,4-thiadiazol-5-yl]-2-methylpiperazine-1-carboxamide] |  | 66 |  | 0.94 (≈ 2.1 µM)
31 | Cc1cccc(C)c1NC(=O)N1CCN(c2nc(Cc3ccc(F)cc3)ns2)CC1 [Compound 24, N-(2,6-dimethylphenyl)-4-[3-(4-fluorobenzyl)-1,2,4-thiadiazol-5-yl]piperazine-1-carboxamide] |  | 124 |  | 1.2 (≈ 2.82 µM)
32 | CC1CN(c2nc(Cc3ccc(F)cc3)ns2)CCN1C(=O)Nc1cccc2ccccc12 (stereo not drawn) [Compound 25, N-1-naphtyl-4-[3-(4-fluorobenzyl)-1,2,4-thiadiazol-5-yl]-2-methylpiperazine-1-carboxamide] |  | 97 |  | 1.69 (≈ 3.66 µM)
33 | CC1CN(c2nc(Cc3ccc(F)cc3)ns2)CCN1C(=O)Nc1ccc(F)c(F)c1 (stereo not drawn) [Compound 26, N-(3,4-difluorophenyl)-4-[3-(4-fluorobenzyl)-1,2,4-thiadiazol-5-yl]-2-methylpiperazine-1-carboxamide] |  | 70 |  | 
34 | COc1ccc(NC(=O)N2CCN(c3nc(Cc4ccc(F)cc4)ns3)CC2)c(OC)c1 [Compound 27, N-(2,4-dimethoxyphenyl)-4-[3-(4-fluorobenzyl)-1,2,4-thiadiazol-5-yl]piperazine-1-carboxamide] |  | 67 |  | 
